We go through 21 compounds from patent US20230227447A1, “BENZYLAMINE DERIVATIVES AS DDRS INHIBITORS” (CHIESI FARMACEUTICI S.P.A., priority 2020, published 2023).

In general, Ki refers to the equilibrium dissociation constant of an inhibitor or competing ligand from its target. High values mean weaker binding, low ones tighter binding.

The structures appear in SMILES notation.

Test [1] deals with DDR1 (Homo sapiens, UniProt Q08345). The test can be described thus: DDR1 binding assay (LanthaScreen Europium Kinase Binding assay). More on the design: purchased Carna Biosciences. The settings on record: 5 nM DDR1, 20 nM Kinase Tracer 178, 1 hour at room temperature; Ki from IC50 by Cheng-Prusoff. Here is the method:
(§1) DDR1 and DDR2 binding assays were performed using Life Technologies LanthaScreen™ Europium Kinase Binding assay. The compounds were incubated with 5 nM DDR1 (Carna Biosciences) or 5 nM DDR2 (Life Technologies) for 1 hour at room temperature in white 384-well OptiPlate (PerkinElmer), containing 20 nM or 10 nM Kinase Tracer 178 respectively and 2 nM Europium labelled anti-GST antibody (Life Technologies) in assay buffer (50 mM HEPES pH 7.5, 10 mM MgCl2, 1 mM EGTA and 0.01% BRIJ35).
(§2) The ratio of fluorescence emission 665 nm/615 nm after excitation at 340 nm was obtained using the Tecan Spark 20M plate reader. IC50 values were determined in GraphPad Prism 7.0 software, using 4 parameter model: log(inhibitor) vs. response. IC50 values were converted in Ki using the Cheng-Prusoff equation (Ki=IC50/(1+[Tracer]/Kd).
In general terms: Time-resolved FRET reads energy transfer from a long-lived donor to a nearby acceptor.

Test [2] deals with T1, DDR2 (Homo sapiens, UniProt Q16832).
T1 sequence (Q16832 22-855): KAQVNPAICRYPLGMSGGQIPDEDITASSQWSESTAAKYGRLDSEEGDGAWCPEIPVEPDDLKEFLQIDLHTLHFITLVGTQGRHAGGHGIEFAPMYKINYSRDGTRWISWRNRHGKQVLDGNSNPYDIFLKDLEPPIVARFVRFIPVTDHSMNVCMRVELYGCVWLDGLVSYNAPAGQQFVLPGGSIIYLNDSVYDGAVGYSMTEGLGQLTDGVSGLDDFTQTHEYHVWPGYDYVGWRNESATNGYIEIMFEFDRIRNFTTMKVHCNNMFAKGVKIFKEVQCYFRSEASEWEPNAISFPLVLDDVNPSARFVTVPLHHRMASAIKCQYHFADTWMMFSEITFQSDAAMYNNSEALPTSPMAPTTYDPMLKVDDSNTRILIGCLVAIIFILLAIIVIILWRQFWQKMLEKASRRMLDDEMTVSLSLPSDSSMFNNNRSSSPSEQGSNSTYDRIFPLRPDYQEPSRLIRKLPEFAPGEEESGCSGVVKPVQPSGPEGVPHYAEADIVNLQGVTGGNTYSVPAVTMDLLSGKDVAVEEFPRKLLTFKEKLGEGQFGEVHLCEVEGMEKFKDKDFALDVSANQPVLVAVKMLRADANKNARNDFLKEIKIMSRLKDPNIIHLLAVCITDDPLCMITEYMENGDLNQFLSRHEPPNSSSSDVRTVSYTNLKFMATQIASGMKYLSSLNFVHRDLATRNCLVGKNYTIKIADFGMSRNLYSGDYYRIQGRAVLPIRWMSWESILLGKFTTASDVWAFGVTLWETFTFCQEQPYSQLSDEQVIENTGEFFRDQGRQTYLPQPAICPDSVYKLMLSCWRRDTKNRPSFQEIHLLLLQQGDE
The test can be described thus: DDR2 binding assay (LanthaScreen Europium Kinase Binding assay). More on the design: purchased Life Technologies. The settings on record: 5 nM DDR2, 10 nM Kinase Tracer 178, 1 hour at room temperature; Ki from IC50 by Cheng-Prusoff. How it is done: as §1, §2

Chain of DDR1 (Q08345 19-913): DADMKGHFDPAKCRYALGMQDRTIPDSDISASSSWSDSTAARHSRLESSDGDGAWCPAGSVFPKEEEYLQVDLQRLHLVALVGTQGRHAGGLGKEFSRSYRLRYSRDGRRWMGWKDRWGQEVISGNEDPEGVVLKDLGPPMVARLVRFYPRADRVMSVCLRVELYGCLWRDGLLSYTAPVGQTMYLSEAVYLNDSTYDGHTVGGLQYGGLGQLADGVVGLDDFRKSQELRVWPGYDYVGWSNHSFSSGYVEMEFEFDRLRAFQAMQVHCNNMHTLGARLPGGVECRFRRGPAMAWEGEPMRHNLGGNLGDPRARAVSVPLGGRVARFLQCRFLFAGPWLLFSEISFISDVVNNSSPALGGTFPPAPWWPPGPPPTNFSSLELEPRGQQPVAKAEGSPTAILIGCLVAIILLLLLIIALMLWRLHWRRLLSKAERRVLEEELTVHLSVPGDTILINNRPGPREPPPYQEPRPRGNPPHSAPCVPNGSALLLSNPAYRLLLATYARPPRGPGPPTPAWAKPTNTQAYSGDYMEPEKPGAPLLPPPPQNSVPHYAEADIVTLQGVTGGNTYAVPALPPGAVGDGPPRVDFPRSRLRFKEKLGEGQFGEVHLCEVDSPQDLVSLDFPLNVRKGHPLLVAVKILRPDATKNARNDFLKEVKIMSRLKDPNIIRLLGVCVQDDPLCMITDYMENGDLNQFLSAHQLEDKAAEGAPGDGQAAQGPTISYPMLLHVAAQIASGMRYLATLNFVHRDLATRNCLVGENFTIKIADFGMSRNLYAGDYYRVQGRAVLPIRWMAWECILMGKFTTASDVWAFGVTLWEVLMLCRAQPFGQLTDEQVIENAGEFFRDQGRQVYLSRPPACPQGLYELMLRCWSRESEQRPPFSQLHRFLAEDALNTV

As for `Cc1cn(-c2cc(NC(=O)c3ccc(C)c(CNc4cnc5ccnn5c4)c3)cc(C(F)(F)F)c2)cn1` [Example 1, 4-methyl-N-(3-(4-methyl-1H-imidazol-1-yl)-5-(trifluoromethyl)phenyl)-3-((pyrazolo[1,5-a]pyrimidin-6-ylamino)methyl)benzamide], the Ki in test [1] and in test [2] was less than 30 nM throughout.
On to `CCN(Cc1cc(C(=O)Nc2cc(-n3cnc(C)c3)cc(C(F)(F)F)c2)ccc1C)c1cnc2ccnn2c1` [Example 2, 3-((ethyl(pyrazolo[1,5-a]pyrimidin-6-yl)amino)methyl)-4-methyl-N-(3-(4-methyl-1H-imidazol-1-yl)-5-(trifluoromethyl)phenyl)benzamide], for which the inhibition constant (Ki) was less than 30 nM in test [1] and 300 to 1000 nM in test [2].
For `Cc1cn(-c2cc(NC(=O)c3ccc(C)c(CNc4ccc5ncsc5c4)c3)cc(C(F)(F)F)c2)cn1` [Example 3, 3-((benzo[d]thiazol-6-ylamino)methyl)-4-methyl-N-(3-(4-methyl-1H-imidazol-1-yl)-5-(trifluoromethyl)phenyl)benzamide], in that order: 30 to 300 nM and 30 to 300 nM.
The corresponding values for `Cc1cn(-c2cc(NC(=O)c3ccc(C)c(CNc4ccc5[nH]ncc5c4)c3)cc(C(F)(F)F)c2)cn1` [Example 4, 3-(((1H-indazol-5-yl)amino)methyl)-4-methyl-N-(3-(4-methyl-1H-imidazol-1-yl)-5-(trifluoromethyl)phenyl)benzamide] are 30 to 300 nM and 30 to 300 nM.
Consider `Cc1cn(-c2cc(NC(=O)c3ccc(C)c(CNc4cnc5[nH]ccc5c4)c3)cc(C(F)(F)F)c2)cn1` [Example 5, 3-(((1H-pyrrolo[2,3-b]pyridin-5-yl)amino)methyl)-4-methyl-N-(3-(4-methyl-1H-imidazol-1-yl)-5-(trifluoromethyl)phenyl)benzamide], for which the Ki in test [1] and in test [2] was less than 30 nM throughout.
Consider `Cc1cn(-c2cc(NC(=O)c3ccc(C)c(CNC4CNc5ccnn5C4)c3)cc(C(F)(F)F)c2)cn1` (stereo not drawn) [Example 6, 4-methyl-N-(3-(4-methyl-1H-imidazol-1-yl)-5-(trifluoromethyl)phenyl)-3-(((4,5,6,7-tetrahydropyrazolo[1,5-a]pyrimidin-6-yl)amino)methyl)benzamide], for which the Ki in test [1] and in test [2] was 300 to 1000 nM throughout.
Turning to `Cc1cn(-c2cc(NC(=O)c3ccc(C)c(CNc4ccnc(C#N)c4)c3)cc(C(F)(F)F)c2)cn1` [Example 7, 3-(((2-cyanopyridin-4-yl)amino)methyl)-4-methyl-N-(3-(4-methyl-1H-imidazol-1-yl)-5-(trifluoromethyl)phenyl)benzamide], the Ki in test [1] and in test [2] was 30 to 300 nM throughout.
`Cc1cn(-c2cc(NC(=O)c3ccc(C)c(CNc4ccc(C#N)cn4)c3)cc(C(F)(F)F)c2)cn1` [Example 8, 3-(((5-cyanopyridin-2-yl)amino)methyl)-4-methyl-N-(3-(4-methyl-1H-imidazol-1-yl)-5-(trifluoromethyl)phenyl)benzamide]: the Ki in test [1] and in test [2] was 30 to 300 nM throughout.
As to `Cc1ccc(NC(=O)c2cc(CN3CCN(C)CC3)cc(C(F)(F)F)c2)cc1CNc1cncnc1` [Example 9, N-(4-methyl-3-((pyrimidin-5-ylamino)methyl)phenyl)-3-((4-methylpiperazin-1-yl)methyl)-5-(trifluoromethyl)benzamide], the Ki in test [1] and in test [2] was less than 30 nM each time.
Take `CNC(=O)c1cc(NCc2cc(NC(=O)c3cc(CN4CCN(C)CC4)cc(C(F)(F)F)c3)ccc2C)ccn1` [Example 10, N-methyl-4-((2-methyl-5-(3-((4-methylpiperazin-1-yl)methyl)-5-(trifluoromethyl)benzamido)benzyl)amino)picolinamide]: the Ki is less than 30 nM in test [1] and 30 to 300 nM in test [2].
The corresponding values for `Cc1ccc(NC(=O)c2cc(CN3CCN(C)CC3)cc(C(F)(F)F)c2)cc1CNCc1cncnc1` [Example 11, N-(4-methyl-3-(((pyrimidin-5-ylmethyl)amino)methyl)phenyl)-3-((4-methylpiperazin-1-yl)methyl)-5-(trifluoromethyl)benzamide] are 300 to 1000 nM and 300 to 1000 nM.
The corresponding values for `Cc1ccc(NC(=O)c2cc(CN3CCN(C)CC3)cc(C(F)(F)F)c2)cc1CN(Cc1cnc2ccccn12)Cc1cnc2ccccn12` [Example 12, N-(3-((bis(imidazo[1,2-a]pyridin-3-ylmethyl)amino)methyl)-4-methylphenyl)-3-((4-methylpiperazin-1-yl)methyl)-5-(trifluoromethyl)benzamide] are less than 30 nM and 30 to 300 nM.
As for `Cc1ccc(NC(=O)c2cc(CN3CCN(C)CC3)cc(C(F)(F)F)c2)cc1CNCc1cnc2ccccn12` [Example 13, N-(3-(((imidazo[1,2-a]pyridin-3-ylmethyl)amino)methyl)-4-methylphenyl)-3-((4-methylpiperazin-1-yl)methyl)-5-(trifluoromethyl)benzamide], the Ki in test [1] and in test [2] was less than 30 nM each time.
In the case of `CNC(=O)c1cc(CNCc2cc(NC(=O)c3cc(CN4CCN(C)CC4)cc(C(F)(F)F)c3)ccc2C)ccn1` [Example 14, N-methyl-4-(((2-methyl-5-(3-((4-methylpiperazin-1-yl)methyl)-5-(trifluoromethyl)benzamido)benzyl)amino)methyl)picolinamide], the Ki in test [1] and in test [2] was 30 to 300 nM each time.
On to `Cc1ccc(NC(=O)c2cc(CN3CCN(C)CC3)cc(C(F)(F)F)c2)cc1CNCc1cnc2[nH]ccc2c1` [Example 15, N-(3-((((1H-pyrrolo[2,3-b]pyridin-5-yl)methyl)amino)methyl)-4-methylphenyl)-3-((4-methylpiperazin-1-yl)methyl)-5-(trifluoromethyl)benzamide], for which the Ki in test [1] and in test [2] was 30 to 300 nM in each case.
As for `CC(C)c1ccc(C(=O)Nc2cc(CN3CCN(C)CC3)cc(C(F)(F)F)c2)cc1CNc1cnc2ccnn2c1` [Example 16, 4-isopropyl-N-(3-((4-methylpiperazin-1-yl)methyl)-5-(trifluoromethyl)phenyl)-3-((pyrazolo[1,5-a]pyrimidin-6-ylamino)methyl)benzamide], the Ki in test [1] and in test [2] was 30 to 300 nM throughout.
For `CCCc1ccc(C(=O)Nc2cc(CN3CCN(C)CC3)cc(C(F)(F)F)c2)cc1CNc1cnc2ccnn2c1` [Example 17, N-(3-((4-methylpiperazin-1-yl)methyl)-5-(trifluoromethyl)phenyl)-4-propyl-3-((pyrazolo[1,5-a]pyrimidin-6-ylamino)methyl)benzamide], the Ki in test [1] and in test [2] was 30 to 300 nM each time.
For `Cc1ccc(C(=O)Nc2cc(CN3CCN(C)CC3)cc(C(F)(F)F)c2)cc1CNc1cnc2ccnn2c1` [Example 18, 4-methyl-N-(3-((4-methylpiperazin-1-yl)methyl)-5-(trifluoromethyl)phenyl)-3-((pyrazolo[1,5-a]pyrimidin-6-ylamino)methyl)benzamide], the values for the Ki in test [1] and in test [2] were less than 30 nM and 30 to 300 nM, respectively.
For `Cc1ccc(C(=O)Nc2cc(CN3CCN(C)CC3)cc(C(F)(F)F)c2)cc1CNc1cncnc1` [Example 19, 4-methyl-N-(3-((4-methylpiperazin-1-yl)methyl)-5-(trifluoromethyl)phenyl)-3-((pyrimidin-5-ylamino)methyl)benzamide], in that order: less than 30 nM and less than 30 nM.
For `Cc1ccc(C(=O)Nc2cc(CN3CCN(C)CC3)cc(C(F)(F)F)c2)cc1CNC(=O)c1cnc2ccccn12` [Example 21, N-(2-methyl-5-((3-((4-methylpiperazin-1-yl)methyl)-5-(trifluoromethyl)phenyl)carbamoyl)benzyl)imidazo[1,2-a]pyridine-3-carboxamide], in that order: less than 30 nM and less than 30 nM.
As to `Cc1cn(-c2cc(NC(=O)c3ccc(C)c(CNC(=O)c4cnc5ccccn45)c3)cc(C(F)(F)F)c2)cn1` [Example 22, N-(2-methyl-5-((3-(4-methyl-1H-imidazol-1-yl)-5-(trifluoromethyl)phenyl)carbamoyl)benzyl)imidazo[1,2-a]pyridine-3-carboxamide], the Ki in test [1] and in test [2] was less than 30 nM throughout.
